From PubChem BioAssay AID330 (DTP/NCI, 2004)
Values joined by “and” are separate entries in the source; they are usually repeats but may differ in a detail not shown here. Equal entries are not always repeated. Toxic doses and inconclusive results are not listed.

System: P388 leukemia ip, CD2F1 mice, survival T/C
Experiment: NCI In Vivo Anticancer Drug Screen. Data for tumor model P388 Leukemia (intraperitoneal) in CD2F1 (CDF1) mice
Details: endpoint: median survival time, higher = longer survival
In short: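 Mice carrying the transplanted tumor received test compound or vehicle. Survival was recorded in each group, and the value is the treated-group measurement divided by that of the vehicle-treated control group.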

[1] = dose: 50.0 mg/kg/injection, schedule: Q01DX005 (ip), vehicle: Klucel (hydroxypropylcellulose) (HPC)
[2] = dose: 100.0 mg/kg/injection, schedule: Q01DX005 (ip), vehicle: Klucel (hydroxypropylcellulose) (HPC)
[3] = dose: 200.0 mg/kg/injection, schedule: Q01DX005 (ip), vehicle: Klucel (hydroxypropylcellulose) (HPC)
[4] = dose: 100.0 mg/kg/injection, schedule: Q04DX003 (ip), vehicle: saline with Tween-80
[5] = dose: 200.0 mg/kg/injection, schedule: Q04DX003 (ip), vehicle: saline with Tween-80
[6] = dose: 400.0 mg/kg/injection, schedule: Q04DX003 (ip), vehicle: saline with Tween-80
[7] = dose: 60.0 mg/kg/injection, schedule: Q01DX005 (ip), vehicle: saline with Tween-80
[8] = dose: 240.0 mg/kg/injection, schedule: Q01DX005 (ip), vehicle: saline with Tween-80

O=C(CCSCCCl)Nc1c(C(=O)O)cc([N+](=O)[O-])cc1[N+](=O)[O-]
T/C (dose: 3.13 mg/kg/injection, schedule: Q04DX003 (ip), vehicle: DMSO): 94 % of control | T/C (dose: 6.25 mg/kg/injection, schedule: Q04DX003 (ip), vehicle: DMSO): 100 % of control | T/C (dose: 12.5 mg/kg/injection, schedule: Q04DX003 (ip), vehicle: DMSO): 102 % of control | T/C (dose: 25.0 mg/kg/injection, schedule: Q04DX003 (ip), vehicle: DMSO): 111 % of control | T/C (dose: 50.0 mg/kg/injection, schedule: Q04DX003 (ip), vehicle: DMSO): 102 % of control and 109 % of control | T/C (dose: 100.0 mg/kg/injection, schedule: Q04DX003 (ip), vehicle: DMSO): 116 % of control

CC(O)c1cc2c(o1)C(=O)c1cccc(O)c1C2=O (stereo unspecified)
T/C (dose: 9.38 mg/kg/injection, schedule: Q01DX005 (ip), vehicle: Klucel (hydroxypropylcellulose) (HPC)): 95 % of control | T/C (dose: 18.75 mg/kg/injection, schedule: Q01DX005 (ip), vehicle: Klucel (hydroxypropylcellulose) (HPC)): 95 % of control | T/C (dose: 37.5 mg/kg/injection, schedule: Q01DX005 (ip), vehicle: Klucel (hydroxypropylcellulose) (HPC)): 95 % of control

C#CC(=O)OCC#CCOC(=O)C#C
T/C (dose: 0.75 mg/kg/injection, schedule: Q01DX009 (ip), vehicle: saline with Tween-80): 104 % of control | T/C (dose: 1.5 mg/kg/injection, schedule: Q01DX009 (ip), vehicle: saline with Tween-80): 104 % of control | T/C (dose: 3.0 mg/kg/injection, schedule: Q01DX009 (ip), vehicle: saline with Tween-80): 112 % of control | T/C (dose: 6.0 mg/kg/injection, schedule: Q01DX009 (ip), vehicle: saline with Tween-80): 96 % of control

CC(=O)/C=C1\N(C)c2ccccc2C1(C)C
T/C [1]: 104 % of control | T/C [2]: 107 % of control | T/C [3]: 100 % of control

O=[N+]([O-])c1c(-c2ccccc2)csc1SSc1scc(-c2ccccc2)c1[N+](=O)[O-]
T/C [4]: 103 % of control | T/C [5]: 96 % of control | T/C [6]: 100 % of control

S[C@@H]1CCCN1
T/C (dose: 50.0 mg/kg/injection, schedule: Q01DX005 (ip), vehicle: saline): 97 % of control | T/C (dose: 100.0 mg/kg/injection, schedule: Q01DX005 (ip), vehicle: saline): 102 % of control | T/C (dose: 200.0 mg/kg/injection, schedule: Q01DX005 (ip), vehicle: saline): 99 % of control

Nc1ccc(C(O)(C(F)(F)F)C(F)(F)F)c(C(=O)O)c1
T/C (dose: 100.0 mg/kg/injection, schedule: Q04DX003 (ip), vehicle: other): 104 % of control | T/C (dose: 200.0 mg/kg/injection, schedule: Q04DX003 (ip), vehicle: other): 100 % of control | T/C (dose: 400.0 mg/kg/injection, schedule: Q04DX003 (ip), vehicle: other): 109 % of control

CC(C)CNC1=CC(=S)NC(C)(C)C1
T/C [1]: 99 % of control | T/C [2]: 101 % of control | T/C [3]: 94 % of control

O=C(O)C1NCCC1Oc1ccccc1 (stereo unspecified)
T/C [1]: 99 % of control | T/C [2]: 104 % of control | T/C [3]: 100 % of control

O=[N+]([O-])c1cc(C(Nc2nncs2)Nc2nncs2)ccc1Cl
T/C (dose: 30.0 mg/kg/injection, schedule: Q01DX005 (ip), vehicle: saline with Tween-80): 91 % of control | T/C [7]: 109 % of control and 87 % of control | T/C [8]: 150 % of control

CCC1CN1P(=O)(OCCC#N)N1CC1CC (stereo unspecified)
T/C (dose: 12.5 mg/kg/injection, schedule: Q01DX009 (ip), vehicle: saline): 100 % of control | T/C (dose: 25.0 mg/kg/injection, schedule: Q01DX009 (ip), vehicle: saline): 104 % of control | T/C (dose: 50.0 mg/kg/injection, schedule: Q01DX009 (ip), vehicle: saline): 109 % of control | T/C [4]: 104 % of control | T/C [5]: 100 % of control | T/C [6]: 104 % of control

N#CNC(c1ccccc1)(c1ccccc1)c1ccccc1
T/C (dose: 50.0 mg/kg/injection, schedule: Q01DX005 (ip), vehicle: saline with Tween-80): 98 % of control | T/C (dose: 100.0 mg/kg/injection, schedule: Q01DX005 (ip), vehicle: saline with Tween-80): 98 % of control | T/C (dose: 200.0 mg/kg/injection, schedule: Q01DX005 (ip), vehicle: saline with Tween-80): 94 % of control

CCOC(=O)C1=CC2CCOC2O1 (stereo unspecified)
T/C [7]: 95 % of control | T/C (dose: 120.0 mg/kg/injection, schedule: Q01DX005 (ip), vehicle: saline with Tween-80): 95 % of control | T/C [8]: 101 % of control
